Laboratory results: article PMC6979384, “Characterization of the plant homeodomain (PHD) reader family for their histone tail interactions” (Epigenetics & Chromatin, 2020)
Where no end group is shown, it is not given here. [ ]: non-standard residue; d: D form. Lys(Me3) = C[N+](C)(C)CCCC[C@H](N)C(=O)O; pT = C[C@@H](OP(=O)(O)O)[C@H](N)C(=O)O; Lys(Me2) = CN(C)CCCC[C@H](N)C(=O)O; Lys(Me) = CNCCCC[C@H](N)C(=O)O

What was measured:
Assay in all cases: Histone peptide microarray
Assay type in all cases: binding, human
CHD4 (PPCC) = settings: for Array Heatmap signal, CHD4 (PPCC): histone peptide array, GST-tagged reader, PPCC = Dual PHD + Dual Chromodomain, arrays performed twice, n of 4
In short: (§1)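 Mean ± SD of 4 replicate array intensities; GST-PHD finger at 0.5 μM against 293 PTM-bearing histone peptides.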

PHF8 = settings: for Array Heatmap signal, PHF8: histone peptide array, GST-tagged reader, arrays performed twice, n of 4
In short: as §1

PHF13 = settings: for Array Heatmap signal, PHF13: histone peptide array, GST-tagged reader, arrays performed twice, n of 4
In short: as §1

KDM4C (TTP) = settings: for Array Heatmap signal, KDM4C (TTP): histone peptide array, GST-tagged reader, TTP = Tandem Tudor domain + PHD, arrays performed twice, n of 4
In short: as §1

BPTF (PB) = settings: for Array Heatmap signal, BPTF (PB): histone peptide array, GST-tagged reader, PB = PHD + Bromodomain, arrays performed twice, n of 4
In short: as §1

TAF3 = settings: for Array Heatmap signal, TAF3: histone peptide array, GST-tagged reader, arrays performed twice, n of 4
In short: as §1

ING2 = settings: for Array Heatmap signal, ING2: histone peptide array, GST-tagged reader, arrays performed twice, n of 4
In short: as §1

ING4 = settings: for Array Heatmap signal, ING4: histone peptide array, GST-tagged reader, arrays performed twice, n of 4
In short: as §1

PHF23 = settings: for Array Heatmap signal, PHF23: histone peptide array, GST-tagged reader, arrays performed twice, n of 4
In short: as §1

CHD5 (PPCC) = settings: for Array Heatmap signal, CHD5 (PPCC): histone peptide array, GST-tagged reader, PPCC = Dual PHD + Dual Chromodomain, arrays performed twice, n of 4
In short: as §1

KDM5B (3) = settings: for Array Heatmap signal, KDM5B (3): histone peptide array, GST-tagged reader, arrays performed twice, n of 4
In short: as §1

DPF2 (PPC2W2) = settings: for Array Heatmap signal, DPF2 (PPC2W2): histone peptide array, GST-tagged reader, PPC2W2 = Dual PHD + C2W2-type Zn-finger, arrays performed twice, n of 4
In short: as §1

TRIM66 (PB) = settings: for Array Heatmap signal, TRIM66 (PB): histone peptide array, GST-tagged reader, PB = PHD + Bromodomain, arrays performed twice, n of 4
In short: as §1

KDM7A = settings: for Array Heatmap signal, KDM7A: histone peptide array, GST-tagged reader, arrays performed twice, n of 4
In short: as §1

MLL5 = settings: for Array Heatmap signal, MLL5: histone peptide array, GST-tagged reader, arrays performed twice, n of 4
In short: as §1

AIRE (PP) = settings: for Array Heatmap signal, AIRE (PP): histone peptide array, GST-tagged reader, arrays performed twice, n of 4
In short: as §1

MORC3 (CW) = settings: for Array Heatmap signal, MORC3 (CW): histone peptide array, GST-tagged reader, CW = CW-type Zn-finger, arrays performed twice, n of 4
In short: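 Each reader, produced as a GST fusion and purified, was tested at 0.5 μM on synthetic histone peptides (293 in total) carrying single or combinatorial marks. Intensities averaged over four replicates.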

RAG2 = settings: for Array Heatmap signal, RAG2: histone peptide array, GST-tagged reader, arrays performed twice, n of 4
In short: as §1

PHF21A = settings: for Array Heatmap signal, PHF21A: histone peptide array, GST-tagged reader, arrays performed twice, n of 4
In short: as §1

ING3 = settings: for Array Heatmap signal, ING3: histone peptide array, GST-tagged reader, arrays performed twice, n of 4
In short: as §1

ING5 = settings: for Array Heatmap signal, ING5: histone peptide array, GST-tagged reader, arrays performed twice, n of 4
In short: as §1

KDM5B (1) = settings: for Array Heatmap signal, KDM5B (1): histone peptide array, GST-tagged reader, arrays performed twice, n of 4
In short: as §1

CHD5 (PCC) = settings: for Array Heatmap signal, CHD5 (PCC): histone peptide array, GST-tagged reader, PCC = PHD + Dual Chromodomain, arrays performed twice, n of 4
In short: as §1

PHRF1 (RP) = settings: for Array Heatmap signal, PHRF1 (RP): histone peptide array, GST-tagged reader, arrays performed twice, n of 4
In short: as §1

SP140L = settings: for Array Heatmap signal, SP140L: histone peptide array, GST-tagged reader, arrays performed twice, n of 4
In short: as §1

BAZ2B = settings: for Array Heatmap signal, BAZ2B: histone peptide array, GST-tagged reader, arrays performed twice, n of 4
In short: as §1

PHF2 = settings: for Array Heatmap signal, PHF2: histone peptide array, GST-tagged reader, arrays performed twice, n of 4
In short: as §1

ING1 = settings: for Array Heatmap signal, ING1: histone peptide array, GST-tagged reader, arrays performed twice, n of 4
In short: as §1

KDM5A (1) = settings: for Array Heatmap signal, KDM5A (1): histone peptide array, GST-tagged reader, arrays performed twice, n of 4
In short: as §1

KDM5A (3) = settings: for Array Heatmap signal, KDM5A (3): histone peptide array, GST-tagged reader, arrays performed twice, n of 4
In short: as §1

DIDO1 = settings: for Array Heatmap signal, DIDO1: histone peptide array, GST-tagged reader, arrays performed twice, n of 4
In short: as §1

## H3.3K36me2 (27-45): H3.3 27-45 (KSAPSTGGV[Lys(Me2)]KPHRYRPGT; UniProt P84243 28-46, looked up, fragment)
CHD4 (PPCC)
  Array Heatmap signal, CHD4 (PPCC): 0.5698
PHF8
  Array Heatmap signal, PHF8: 0.3824
PHF13
  Array Heatmap signal, PHF13: 0.6587
KDM4C (TTP)
  Array Heatmap signal, KDM4C (TTP): 0.5418
BPTF (PB)
  Array Heatmap signal, BPTF (PB): 0.3735
TAF3
  Array Heatmap signal, TAF3: 0.2867
ING2
  Array Heatmap signal, ING2: 0.5971
ING4
  Array Heatmap signal, ING4: 0.4773
PHF23
  Array Heatmap signal, PHF23: 0.5877
CHD5 (PPCC)
  Array Heatmap signal, CHD5 (PPCC): 0.6024
KDM5B (3)
  Array Heatmap signal, KDM5B (3): 0.5383
DPF2 (PPC2W2)
  Array Heatmap signal, DPF2 (PPC2W2): 0.6778
TRIM66 (PB)
  Array Heatmap signal, TRIM66 (PB): 0.6104
KDM7A
  Array Heatmap signal, KDM7A: 0.3737
MLL5
  Array Heatmap signal, MLL5: 0.5651
AIRE (PP)
  Array Heatmap signal, AIRE (PP): 0.4867
MORC3 (CW)
  Array Heatmap signal, MORC3 (CW): 0.4027
RAG2
  Array Heatmap signal, RAG2: 0.3087
PHF21A
  Array Heatmap signal, PHF21A: 0.4763
ING3
  Array Heatmap signal, ING3: 0.5215
ING5
  Array Heatmap signal, ING5: 0.3908
KDM5B (1)
  Array Heatmap signal, KDM5B (1): 0.6701
CHD5 (PCC)
  Array Heatmap signal, CHD5 (PCC): 0.8212
PHRF1 (RP)
  Array Heatmap signal, PHRF1 (RP): 0.4622
SP140L
  Array Heatmap signal, SP140L: 0.3879
BAZ2B
  Array Heatmap signal, BAZ2B: 0.4965
PHF2
  Array Heatmap signal, PHF2: 0.5053
ING1
  Array Heatmap signal, ING1: 0.5396
KDM5A (1)
  Array Heatmap signal, KDM5A (1): 0.505
KDM5A (3)
  Array Heatmap signal, KDM5A (3): 0.4963
DIDO1
  Array Heatmap signal, DIDO1: 0.7878

## H3.3K36me3 (27-45): H3.3 27-45 (KSAPSTGGV[Lys(Me3)]KPHRYRPGT; UniProt P84243 28-46, looked up, fragment)
CHD4 (PPCC)
  Array Heatmap signal, CHD4 (PPCC): 0.6082
PHF8
  Array Heatmap signal, PHF8: 0.3825
PHF13
  Array Heatmap signal, PHF13: 0.6344
KDM4C (TTP)
  Array Heatmap signal, KDM4C (TTP): 0.5574
BPTF (PB)
  Array Heatmap signal, BPTF (PB): 0.3644
TAF3
  Array Heatmap signal, TAF3: 0.2966
ING2
  Array Heatmap signal, ING2: 0.6059
ING4
  Array Heatmap signal, ING4: 0.493
PHF23
  Array Heatmap signal, PHF23: 0.5271
CHD5 (PPCC)
  Array Heatmap signal, CHD5 (PPCC): 0.5971
KDM5B (3)
  Array Heatmap signal, KDM5B (3): 0.5477
DPF2 (PPC2W2)
  Array Heatmap signal, DPF2 (PPC2W2): 0.6714
TRIM66 (PB)
  Array Heatmap signal, TRIM66 (PB): 0.5777
KDM7A
  Array Heatmap signal, KDM7A: 0.4319
MLL5
  Array Heatmap signal, MLL5: 0.5409
AIRE (PP)
  Array Heatmap signal, AIRE (PP): 0.5852
MORC3 (CW)
  Array Heatmap signal, MORC3 (CW): 0.4025
RAG2
  Array Heatmap signal, RAG2: 0.254
PHF21A
  Array Heatmap signal, PHF21A: 0.5086
ING3
  Array Heatmap signal, ING3: 0.4806
ING5
  Array Heatmap signal, ING5: 0.3836
KDM5B (1)
  Array Heatmap signal, KDM5B (1): 0.6389
CHD5 (PCC)
  Array Heatmap signal, CHD5 (PCC): 0.837
PHRF1 (RP)
  Array Heatmap signal, PHRF1 (RP): 0.4414
SP140L
  Array Heatmap signal, SP140L: 0.3873
BAZ2B
  Array Heatmap signal, BAZ2B: 0.5018
PHF2
  Array Heatmap signal, PHF2: 0.459
ING1
  Array Heatmap signal, ING1: 0.5245
KDM5A (1)
  Array Heatmap signal, KDM5A (1): 0.5417
KDM5A (3)
  Array Heatmap signal, KDM5A (3): 0.4596
DIDO1
  Array Heatmap signal, DIDO1: 0.6308

## H3.3T32pK36me1 (27-45): H3.3 27-45 (KSAPS[pT]GGV[Lys(Me)]KPHRYRPGT; UniProt P84243 28-46, looked up, fragment)
CHD4 (PPCC); CHD4 (PPCC), sheet "Array Heatmap", each array performed twice, total n = 4
  Array Heatmap value (peptide array signal): 0.5131
PHF8; PHF8, sheet "Array Heatmap", each array performed twice, total n = 4
  Array Heatmap value (peptide array signal): 0.3083
PHF13; PHF13, sheet "Array Heatmap", each array performed twice, total n = 4
  Array Heatmap value (peptide array signal): 0.5172
KDM4C (TTP); KDM4C (TTP), sheet "Array Heatmap", each array performed twice, total n = 4
  Array Heatmap value (peptide array signal): 0.4138
BPTF (PB); BPTF (PB), sheet "Array Heatmap", each array performed twice, total n = 4
  Array Heatmap value (peptide array signal): 0.2876
TAF3; TAF3, sheet "Array Heatmap", each array performed twice, total n = 4
  Array Heatmap value (peptide array signal): 0.2218
ING2; ING2, sheet "Array Heatmap", each array performed twice, total n = 4
  Array Heatmap value (peptide array signal): 0.5942
ING4; ING4, sheet "Array Heatmap", each array performed twice, total n = 4
  Array Heatmap value (peptide array signal): 0.3862
PHF23; PHF23, sheet "Array Heatmap", each array performed twice, total n = 4
  Array Heatmap value (peptide array signal): 0.4636
CHD5 (PPCC); CHD5 (PPCC), sheet "Array Heatmap", each array performed twice, total n = 4
  Array Heatmap value (peptide array signal): 0.4567
KDM5B (3); KDM5B (3), sheet "Array Heatmap", each array performed twice, total n = 4
  Array Heatmap value (peptide array signal): 0.4083
DPF2 (PPC2W2); DPF2 (PPC2W2), sheet "Array Heatmap", each array performed twice, total n = 4
  Array Heatmap value (peptide array signal): 0.6269
TRIM66 (PB); TRIM66 (PB), sheet "Array Heatmap", each array performed twice, total n = 4
  Array Heatmap value (peptide array signal): 0.5132
KDM7A; KDM7A, sheet "Array Heatmap", each array performed twice, total n = 4
  Array Heatmap value (peptide array signal): 0.3406
MLL5; MLL5, sheet "Array Heatmap", each array performed twice, total n = 4
  Array Heatmap value (peptide array signal): 0.508
AIRE (PP); AIRE (PP), sheet "Array Heatmap", each array performed twice, total n = 4
  Array Heatmap value (peptide array signal): 0.3866
MORC3 (CW); MORC3 (CW), sheet "Array Heatmap", each array performed twice, total n = 4
  Array Heatmap value (peptide array signal): 0.3018
RAG2; RAG2, sheet "Array Heatmap", each array performed twice, total n = 4
  Array Heatmap value (peptide array signal): 0.206
PHF21A; PHF21A, sheet "Array Heatmap", each array performed twice, total n = 4
  Array Heatmap value (peptide array signal): 0.4142
ING3; ING3, sheet "Array Heatmap", each array performed twice, total n = 4
  Array Heatmap value (peptide array signal): 0.3966
ING5; ING5, sheet "Array Heatmap", each array performed twice, total n = 4
  Array Heatmap value (peptide array signal): 0.288
KDM5B (1); KDM5B (1), sheet "Array Heatmap", each array performed twice, total n = 4
  Array Heatmap value (peptide array signal): 0.6155
CHD5 (PCC); CHD5 (PCC), sheet "Array Heatmap", each array performed twice, total n = 4
  Array Heatmap value (peptide array signal): 0.7362
PHRF1 (RP); PHRF1 (RP), sheet "Array Heatmap", each array performed twice, total n = 4
  Array Heatmap value (peptide array signal): 0.3716
SP140L; SP140L, sheet "Array Heatmap", each array performed twice, total n = 4
  Array Heatmap value (peptide array signal): 0.3216
BAZ2B; BAZ2B, sheet "Array Heatmap", each array performed twice, total n = 4
  Array Heatmap value (peptide array signal): 0.3924
PHF2; PHF2, sheet "Array Heatmap", each array performed twice, total n = 4
  Array Heatmap value (peptide array signal): 0.4286
ING1; ING1, sheet "Array Heatmap", each array performed twice, total n = 4
  Array Heatmap value (peptide array signal): 0.4774
KDM5A (1); KDM5A (1), sheet "Array Heatmap", each array performed twice, total n = 4
  Array Heatmap value (peptide array signal): 0.4102
KDM5A (3); KDM5A (3), sheet "Array Heatmap", each array performed twice, total n = 4
  Array Heatmap value (peptide array signal): 0.429
DIDO1; DIDO1, sheet "Array Heatmap", each array performed twice, total n = 4
  Array Heatmap value (peptide array signal): 0.6188
